According to patent US20240041976A1, “COMPOSITION AND USE” (priority 2020, published 2024):
Like-named read-outs stand apart in the source and are kept apart here. No end group written: not given here.

Legend:
[1] = tested on: S. pseudintermedius MRSP 45; assay: microbe, parasite or virus in culture; type: cell-based, Staphylococcus pseudintermedius; details: Staphylococcus pseudintermedius, MRSP45, MRSP 45, 24 h, read-out: MIC, single component
Experimental: (§1) Antimicrobial activity was measured using the AAMP assay (Wiegand et al., 2008, Nat. Protoc., Vol. 3(2), p 163-175).
(§2) Synergy testing was done with a microtiter plate checkerboard assay as previously described (Orhan et al., 2005, J. Clin. Microbiol., Vol. 43(1), p 140-143). Briefly, equal amounts of antimicrobial A were applied on microtiter plate 1 in wells A1-H1 and then diluted two-fold to wells 2-12. Similarly, equal amounts of antimicrobial B were applied on microtiter plate 2 in wells A1-A12 and diluted two-fold in wells B-H. Volumes of 50 μl of antimicrobial A from each well of microtiter plate 1 were transferred into microtiter plate 3, except for wells H1-H12. Similarly, the same volumes were transferred from microtiter plate 2 into plate 3, except for wells A1-A8. A 100 μl volume of 25 times diluted ON bacterial culture of MRSA was transferred into each well of plate 3. A 50 μl volume of pure broth was added into each well in lines H1-H12 and A1-A8 which were used to estimate MIC values of pure substances (blank).
(§3) Antimicrobial activity was measured using the AAMP assay as described in Example 2.
(§4) Synergy testing was performed as in Example 2.

S. haemoliticus NVH 409 = assay: organism not typed; type: cell-based
Experimental: as §1, §2, §3, §4

E. faecalis 3351 = assay: microbe, parasite or virus in culture; type: cell-based, Enterococcus faecalis
Experimental: as §1, §2, §3, §4

E.faecalis 3689 = assay: microbe, parasite or virus in culture; type: cell-based, Enterococcus faecalis
Experimental: as §1, §2, §3, §4

E. faecium LMGT 3104 = assay: microbe, parasite or virus in culture; type: cell-based, Enterococcus faecium; details: Enterococcus faecium, LMGT3104, read-out: MIC, single antimicrobial
Experimental: as §1, §2, §3, §4

[2] = tested on: S. aureus biofilms (six strains); assay: BOAT, summary over strains; type: cell-based, Staphylococcus aureus
Experimental: The BOAT assay was performed as described previously (Gronseth et al., 2017, Int. J. Pediatr. Otorhinolaryngol., Vol. 103, p 58-64) with some modifications. The serial dilutions of the antimicrobials were prepared in challenge plates as follows: 175 μl of TSB were transferred in each row of a 96-well microtiter plate, except for the first row, according to the number of microbial strains to treat. In the first row of the plate, the antimicrobials were diluted to their respective working concentrations in a final volume of 350 μl of TSB. From the first row, 175 μl of the antimicrobial dilutions were then transferred to the second row of the plate and further serially diluted to the bottom of the plate. The same procedure was followed to prepare the controls, except that instead of the antimicrobials an equivalent volume of the respective vehicles were used. […] The results were then assessed by monitoring the development (or not) of red formazan (red colour), denoting the retention of metabolic activity by bacterial cells (Moussa et al., 2013, J. Mycol., Vol. 2013; Perez et al., 2010, Lett. Appl. Microbiol., Vol. 51, p 331-337). […] The amount of extracted dye, reflecting the degree of bacterial cell metabolic activity, was then quantified by spectrophotometric readings at 492 nm.

MRSA ATCC 33521-lux = assay: Agar plate spot assay, resistance development (FIG. 4); type: cell-based, Staphylococcus aureus; details: up to 72 h incubation at 37° C.
Experimental: Pure GarKS and PenG each at 50 μg, MP1 at 0.1 μg, were applied at the indicated spots. The pictures of the plates were taken after 24, 48 and 72 h of incubation at 37° C. Sections of the inhibition zones on the right show resistance development seen as small white dots (in the inhibition zones of GarKS and MP1).

[3] = tested on: Methicillin-Resistant Staphylococcus aureus; type: in vivo, mice; details: repeat on larger groups; data not shown
Experimental: The experiment was performed essentially as set out in Example 2, except that the following regimes as described below, were used.
50-70 μl of cream was applied per wound.
Treatment was daily for 4 days.
The rifampicin/MP1 experiment was repeated on a larger group of mice in each category (8 mice for each of rifampicin, MP1, rifampicin+MP1, 8 mice with APO base cream 30% as used for rifampicin and MP1, 7 mice untreated). Seven mice were also treated with fucidin cream (2% fusidic acid in a cream base) as a positive control.

[4] = tested on: clinical S. aureus strains from leprosy-associated skin ulcers (biofilms); assay: BOAT on clinical isolates; type: cell-based, Staphylococcus aureus; details: 14 clinical S. aureus isolates
Description: Leprosy patients with plantar ulcers who were registered at LEPRA Society, BPHRC, Hyderabad, India during December 2018 through May 2019 (n=31) were enrolled into the study after obtaining an informed consent. The study protocol was approved by the Institutional Ethical Committee at LEPRA Society. A total of thirty-one wound swabs were collected using sterile pure viscose swab (Hi-media, Mumbai, India) and transported immediately for further processing to the microbiology laboratory. One swab was collected from each leprosy foot ulcer. Each swab was inoculated on Blood and McConkey agar and incubated at 37° C. overnight and the plates were examined for growth on the following day. Cultures were identified by colony morphology, Gram staining and other standard tests. […]
The BOAT assay was performed as described previously (Gronseth et al., 2017, Int. J. Pediatr. Otorhinolaryngol., Vol. 103, p 58-64) with some modifications. […] The results were then assessed by monitoring the development (or not) of red formazan (red colour), denoting the retention of metabolic activity by bacterial cells (Moussa et al., 2013, J. Mycol., Vol. 2013; Perez et al., 2010, Lett. Appl. Microbiol., Vol. 51, p 331-337). […] The amount of extracted dye, reflecting the degree of bacterial cell metabolic activity, was then quantified by spectrophotometric readings at 492 nm.

CC1(C)S[C@@H]2[C@H](NC(=O)Cc3ccccc3)C(=O)N2[C@H]1C(=O)O [Penicillin G]
MIC ([1]; Table 9): > 125 µg/mL

MKFKFNPTGTIVKKLTQYEINWYKQQYGRYPWERPVA [Hybrid K1-EJ]
MIC, single antimicrobial (S. haemoliticus NVH 409): >25 µg/mL
MIC of MP1 in comb. with the labelled antimicrobial (S. haemoliticus NVH 409; S. haemoliticus NVH 409): 0.08 µg/mL
MIC of the labelled antimicrobial in comb. with MP1 (S. haemoliticus NVH 409; S. haemoliticus NVH 409): 3 µg/mL
MIC, single antimicrobial (E. faecalis 3351; 3351): >25 µg/mL
MIC of MP1 in comb. with the labelled antimicrobial (E. faecalis 3351; E. faecalis 3351): 5.6 µg/mL
MIC of the labelled antimicrobial in comb. with MP1 (E. faecalis 3351; E. faecalis 3351): 3 µg/mL
MIC, single antimicrobial (E.faecalis 3689; 3689): >25 µg/mL
MIC of MP1 in comb. with the labelled antimicrobial (E.faecalis 3689; E.faecalis 3689): 3 µg/mL
MIC of the labelled antimicrobial in comb. with MP1 (E.faecalis 3689; E.faecalis 3689): 1.5 µg/mL

C/C=C(\NC(=O)c1csc(-c2csc(-c3ccc4c(n3)-c3csc(n3)[C@H]([C@@H](C)O)NC(=O)c3csc(n3)[C@H](C(C)C)NC(=O)c3csc(n3)/C(=C/C)NC(=O)[C@H]([C@@H](C)O)NC(=O)c3csc-4n3)n2)n1)C(=O)NC[C@@H](C)O [MP1, micrococcin P1]
MIC (E. faecium LMGT 3104): 2.5 µg/mL
MIC (S. haemoliticus NVH 409; S. haemoliticus NVH 409, read-out: MIC, single antimicrobial): 1.25 µg/mL
MIC (E. faecalis 3351; Enterococcus faecalis, E. faecalis 3351, read-out: MIC, single antimicrobial): > 45 µg/mL
MIC (E.faecalis 3689; Enterococcus faecalis, E.faecalis 3689, read-out: MIC, single antimicrobial): > 45 µg/mL
MIC ([1]; Table 8): > 2.5 µg/mL
effect on biofilm-associated metabolic activity (BOAT) ([2]; six strains, up to 5 mg/ml garvicin KS, 0.1 mg/ml micrococcin P1): ineffective against all the strains
increase in resistance compared to the planktonic state ([2]; some of the biofilm producers): over 160 fold
resistance development on agar plates (MRSA ATCC 33521-lux): resistant colonies of MRSA appeared within the inhibition zones
antimicrobial effect in the mouse skin wound model [3]: Neither MP1 nor the cream base showed any antimicrobial effect

B1: Garvicin KS: three-peptide leaderless bacteriocin (GarA, GarB, GarC; SEQ ID NO:6-8), peptides synthesized (peptide, listed as Lactococcus garvieae)
chain 1: MGAIIKAGAKIVGKGVLGGGASWLGWNVGEKIWK
chain 2: MGAIIKAGAKIIGKGLLGGAAGGATYGGLKKIFG
chain 3: MGAIIKAGAKIVGKGALTGGGVWLAEKLFGGK
antimicrobial activity in BOAT on clinical isolates [4]: showed antimicrobial activity against all the strains
resistance development on agar plates (MRSA ATCC 33521-lux): resistant colonies of MRSA appeared within the inhibition zones
